Bridge positions count the residues as written; N and C are the ends. Square brackets hold non-standard residues; d marks the D form. Peptide text beside a SMILES is read from it. ξ: configuration not given here. Gly(N-CH2CH2C6H4-4Cl) = O=C(O)CNCCc1ccc(Cl)cc1; Gly(N-piperonyl) = O=C(O)CNCc1ccc2c(c1)OCO2; Nrpe = C[C@@H](NCC(=O)O)c1ccccc1; NFurfurylGly = O=C(O)CNCc1ccco1; ξE = NC(CCC(=O)O)C(=O)O; Nleu = CC(C)CNCC(=O)O; Nlys = NCCCCNCC(=O)O; Nme = COCCNCC(=O)O
Columns and labels:
[1] = system: CD4+ T cells from MBP Ac1-11 TCR transgenic mice; assay: Binding of quantum dot-labeled T cells to peptoid resynthesized on beads; settings: red quantum dot-labeled
Procedure: To determine whether AG12A was binding to the autoreactive TCR, the inventors took advantage of the existence of transgenic mice, in which the vast majority of CD4+ T cells express the MBP Ac1-11 specific TCR (Vα2.3/Vβ8.2 TCR) (Goveman et al., 1993). CD4+ T cells were isolated from these mice and tested for binding to AG12A. This was done in several ways. First, AG12A was resynthesized on beads, as was a control peptoid not selected as a T cell ligand. The beads were then incubated with red quantum dot-labeled T cells.

B cells = assay: B cell proliferation; format: cell-based
wild-type CD4+ T cells = assay: Binding of quantum dot-labeled T cells to peptoid resynthesized on beads; design: species or system mice
[2] = system: MBP Ac1-11 specific T cells (Vα2.3/Vβ8.2 TCR transgenic); assay: DOPA chemical cross-linking, streptavidin staining, mean fluorescence intensity; design: species or system mice; settings: biotin-labeled DOPA-peptoid, periodate cross-linking, CD4+/streptavidin+ cells; read-out: Kr, of binding to MBP Ac1-11 specific T cells
[3] = system: Myelin Oligodendrocyte Glycoprotein (MOG) 35-55 specific TCR transgenic T cells; assay: Antigen-stimulated T cell proliferation, CFSE dilution by flow cytometry; format: cell-based
[4] = biological target: pemphigus vulgaris autoantibody (Dsg3); assay: Solution binding to pemphigus vulgaris autoantibody; settings: pemphigus vulgaris autoantibody to the Dsg autoantigen; read-out: binding affinity in solution

Kd [4] [µM]	SMILES	binding of T cells to peptoid displayed on beads [1]	inhibition of proliferation of B cells (B cells)	binding of T cells to peptoid displayed on beads (wild-type CD4+ T cells)	Kd [2] [µM]	inhibition of antigen-stimulated proliferation of MOG 35-55 specific TCR transgenic T cells [3]
	CC(C)CNCC(=O)N(CCCCN)CC(=O)N(CC(=O)N(CC(=O)N(CCCCN)CC(=O)N(CC(=O)N(CCCCN)CC(=O)N(CCCCN)CC(N)=O)CC(C)C)[C@H](C)c1ccccc1)Cc1ccco1 [AG12A] (H-[Nleu][Nlys][NFurfurylGly][Nrpe][Nlys][Nleu][Nlys][Nlys]-NH2; C-terminus assumed)	bound to AG12A displayed on beads	nor did AG12A inhibit proliferation of B cells	did not	~40	did not inhibit
~10	COCCN1CC(=O)N(CCCCN)CC(=O)N(Cc2ccc3c(c2)OCO3)CC(=O)N(CCc2ccc(Cl)cc2)CC(=O)NC(C(N)=O)CCC1=O (stereo not drawn) [compound 1a] ([Nme][Nlys][Gly(N-piperonyl)][Gly(N-CH2CH2C6H4-4Cl)][ξE]-NH2; lactam N-5)					

Reference: patent publication US9458199B2, “Antigen surrogates in autoimmune disease” (OPKO Pharmaceuticals, LLC, priority 2011, dated 2016)
